Like-named read-outs stand apart in the source and are kept apart here.
Experiments:
[1] = target: T1, STING AQ: His-TVMV-S-hSTING(155-341)-G230A-R293Q (Homo sapiens, UniProt Q86WV6, G230A/H232R/R293Q); assay: STING HTRF Binding Assay (time resolved FRET competition), STING AQ; details: 20 nM His-tagged STING cytoplasmic domain AQ, 40 nM fluorescein-labeled cGAMP analog probe, one hour; read-out: HTRF Binding Assays EC50 (μM) STING AQ
T1 construct: STING AQ: His-TVMV-S-hSTING(155-341)-G230A-R293Q
Protocol: (§1) A time resolved FRET-based competition binding assay was used to assess test article binding to STING WT and STING AQ. His-tagged STING cytoplasmic domain (WT or AQ) at a concentration of 20 nM was incubated with 2.5 nM Tb-labeled anti-His antibody, test compound, and fluorescein-labeled cGAMP analog probe (BioLog cat. no. C195) at a concentration of 200 nM (STING WT) or 40 nM (STING AQ) in PBS containing 0.005% Tween-20 and 0.1% BSA for one hour. Fluorescence at 495 nm and 520 nm was measured using an EnVision microplate reader to quantify FRET between Tb-labeled anti-His antibody and fluorescein-labeled probe. Background was defined as the signal obtained in the absence of STING protein, and background subtracted FRET ratios were normalized to the maximum signal obtained in the absence of test compound. These values were converted to a percent inhibition. Percent inhibition was determined for test compounds at 11 concentrations. The IC50, defined as the concentration of competing test compound needed to reduce specific binding of the probe by 50%, was calculated using the 4 parameter logistic equation to fit the data

NFkB = assay: STING THP1 Reporter Assay, NF-κB pathway (SEAP); format: cell-based; details: THP1-Dual cells, 10% human plasma, SEAP readout (OD620), 100% activation = 100 μM cGAMP, read-out: THP1 Reporter Assays EC50 (μM) NFkB
Excerpt: (§2) THP1-Dual™ cells were derived from the human THP-1 monocyte cell line by stable integration of two inducible reporter constructs. To this end, THP1-Dual™ cells allow the simultaneous study of the NF-κB pathway, by monitoring the activity of SEAP, and the IRF pathway by assessing the activity of a secreted luciferase (Lucia). Both reporter proteins are readily measurable in the cell culture supernatant when using QUANTI-Blue™, a SEAP detection reagent, and QUANTI-Luc™, a luciferase detection reagent.
(§3) THP 1-Dual™ cells induce the activation of NF-κB in response to STING agonists. They also trigger the IRF pathway upon stimulation with STING agonists, such as cGAMP. Here, the THP-1-Dual cells were used to assess STING binders for function on the cellular level.
(§4) Serial dilutions of compounds in DMSO were added to low volume 384 well plates at 100 nl/well using an ECHO acoustic dispenser (Labcyte, model 550) to achieve final starting concentration of 100 μM in cell suspension. THP-1 Dual™ STING reporter cells (Invivogen, Dual cells cat #THPD-nfis) were added to the plates with compounds at 15,000 cells in 10 μL per well in RPMI media (Gibco, cat #11875) containing 10% human plasma in a low volume 384-well black wall clear bottom tissue culture plate (Corning, cat #3542) for SEAP assay and low volume solid white plate (Corning, cat #3826) for luciferase assay. One column of the plate was reserved for treatment with cGAMP at 100 μM for 100% activation calculation and one column for no treatment (DMSO only) for baseline activation. Plates were then incubated in 37° C. incubator at 5% CO2 for 20 hours.
(§5) In the SEAP assay, […] 2× QuantiBlue (Invivogen, cat #Rep-qb2) is added to 384 well black plates seeded with THP1 cells and incubated at 37° C. for 2 hours. Plates were read on the Envision (Perkin Elmer) at 620 nm wavelength (OD620). In the luciferase assay, 5 μl of Quantiluc (Invivogen, Rep-qlc2) is added to white 384 well plates seeded with THP1 cells and read at 5 minutes on the Envision (Perkin Elmer) using a luminescence protocol (RLU). For both cell lines, 100% activation was determined by value (RLU) of THP-1 Dual STING cells stimulated with 100 μM cGAMP (Invivogen, cat #TLRL-NACGA23-5).

[2] = target: T2, STING WT: His-TVMV-S-hSTING(155-341)-H232R (Homo sapiens, UniProt Q86WV6, H232R); assay: STING HTRF Binding Assay (time resolved FRET competition), STING WT; details: 20 nM His-tagged STING cytoplasmic domain WT, 200 nM fluorescein-labeled cGAMP analog probe, one hour; read-out: HTRF Binding Assays EC50 (μM) STING WT
T2 construct: STING WT: His-TVMV-S-hSTING(155-341)-H232R
Protocol: as §1

IRF3 = assay: STING THP1 Reporter Assay, IRF pathway (secreted Lucia luciferase); format: cell-based; details: THP1-Dual cells, 10% human plasma, luciferase readout, 100% activation = 100 μM cGAMP, read-out: THP1 Reporter Assays EC50 (μM) IRF3
Excerpt: as §2, §3, §4, §5

T2 sequence (Q86WV6 with tags, fused parts or gaps H232R): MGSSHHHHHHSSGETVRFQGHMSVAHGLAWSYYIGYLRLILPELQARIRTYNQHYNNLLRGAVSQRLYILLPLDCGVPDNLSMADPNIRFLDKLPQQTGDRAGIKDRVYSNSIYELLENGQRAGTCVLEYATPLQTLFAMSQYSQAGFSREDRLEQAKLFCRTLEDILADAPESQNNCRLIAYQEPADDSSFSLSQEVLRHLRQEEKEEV
T1 sequence (Q86WV6 with tags, fused parts or gaps G230A/H232R/R293Q): as the sequence (Q86WV6 with tags, fused parts or gaps H232R) above, with G99A, R162Q counted along it

Q: How did the EC50 [1] turn out when `Nc1ncnc2c1ncn2[C@@H]1O[C@@H]2COP(=O)(S)O[C@@H]3[C@H](O)[C@@H](COP(=O)(S)O[C@H]2[C@H]1F)O[C@H]3n1cnc2c(=O)[nH]c3nccn3c21` (single isomer, unassigned) [Example 1-3] was run?
A: 0.006 µM

Q: And the EC50 (NFkB; 20 hours)?
A: 27 µM

Q: What about the EC50 [2] of the same compound?
A: 0.03 µM

Q: And the EC50 (IRF3; 20 hours)?
A: 12 µM

Q: What does the source list for `Nc1ncnc2c1ncn2[C@@H]1O[C@@H]2COP(=O)(S)O[C@@H]3[C@H](O)[C@@H](COP(=O)(S)O[C@H]2[C@H]1F)O[C@H]3n1cnc2c(=O)[nH]c3nccn3c21` (single isomer, unassigned) [Example 1-1]?
A: EC50 [1]: 0.07 µM; EC50 (NFkB; 20 hours): > 100 µM; EC50 [2]: 0.19 µM; EC50 (IRF3; 20 hours): > 100 µM

Q: What does the source list for `Nc1ncnc2c1ncn2[C@@H]1O[C@@H]2COP(=O)(O)O[C@@H]3[C@H](O)[C@@H](COP(=O)(O)O[C@H]2[C@H]1F)O[C@H]3n1cnc2c(=O)[nH]c3nccn3c21` [Example 2, (1R,6R,8R,9R,10R,15R,17R,18R)-8-(6-amino-9H-purin-9-yl)-9-fluoro-3,12,18-trihydroxy-17-{4-oxo-1H,4H,5H-imidazo[2,1-b]purin-1-yl}-2,4,7,11,13,16-hexaoxa-3λ^5,12λ^5-diphosphatricyclo[13.2.1.0^6,10]octadecane-3,12-dione]?
A: EC50 [1]: 0.002 µM; EC50 (NFkB; Homo sapiens, THP-1, 20 h): 59 µM; EC50 [2]: 0.03 µM; EC50 (IRF3; Homo sapiens, THP-1, 20 h): 23 µM

Q: How did the EC50 [1] turn out when `Nc1ncnc2c1ncn2[C@@H]1O[C@@H]2COP(=O)(O)O[C@@H]3[C@H](O)[C@@H](COP(=O)(O)O[C@H]2[C@H]1N)O[C@H]3n1cnc2c(=O)[nH]c3nccn3c21` [Example 3, (1R,6R,8R,9R,10S,15R,17R,18R)-9-amino-8-(6-amino-9H-purin-9-yl)-3,12,18-trihydroxy-17-{4-oxo-1H,4H,5H-imidazo[2,1-b]purin-1-yl}-2,4,7,11,13,16-hexaoxa-3λ^5,12λ^5-diphosphatricyclo[13.2.1.0^6,10]octadecane-3,12-dione] was run?
A: 0.3 µM

Q: What about the EC50 (NFkB; Homo sapiens, THP-1, 20 h) of the same compound?
A: > 100 µM

Q: And the EC50 [2]?
A: 1.6 µM

Q: And the EC50 (IRF3; Homo sapiens, THP-1, 20 h)?
A: > 100 µM

Q: For `Nc1ncnc2c1ncn2[C@@H]1O[C@@H]2COP(=O)(S)O[C@@H]3[C@H](O)[C@@H](COP(=O)(S)O[C@H]2[C@H]1F)O[C@H]3n1cnc2c(=O)[nH]c3nccn3c21` (single isomer, unassigned) [Example 1-4], which EC50 [1] is on record?
A: < 0.001 µM

Q: What about the EC50 (NFkB; 20 hours) of the same compound?
A: 3 µM

Q: What about the EC50 [2] of the same compound?
A: 0.003 µM

Q: And the EC50 (IRF3; 20 hours)?
A: 1 µM

Q: Which results are given for `Nc1ncnc2c1ncn2[C@@H]1O[C@@H]2COP(=O)(S)O[C@@H]3[C@H](O)[C@@H](COP(=O)(S)O[C@H]2[C@H]1F)O[C@H]3n1cnc2c(=O)[nH]c3nccn3c21` (single isomer, unassigned) [Example 1-2]?
A: EC50 [1]: 0.004 µM; EC50 (NFkB; 20 hours): 21 µM; EC50 [2]: 0.02 µM; EC50 (IRF3; 20 hours): 10 µM

— patent US10953032B2, “Cyclic dinucleotides as anticancer agents” (BRISTOL-MYERS SQUIBB COMPANY, priority 2017, dated 2021)
